9 molecules from ChEMBL document CHEMBL4480364, “Discovery of monoamine oxidase inhibitors by medicinal chemistry approaches” (Medchemcomm, 2019) can be followed below.

Molecules are shown by their SMILES. Bounds are passed on as bounds.

For series [1], the target named is T1, Amine oxidase [flavin-containing] A (Homo sapiens, UniProt P21397).
T1 sequence (P21397 whole entry): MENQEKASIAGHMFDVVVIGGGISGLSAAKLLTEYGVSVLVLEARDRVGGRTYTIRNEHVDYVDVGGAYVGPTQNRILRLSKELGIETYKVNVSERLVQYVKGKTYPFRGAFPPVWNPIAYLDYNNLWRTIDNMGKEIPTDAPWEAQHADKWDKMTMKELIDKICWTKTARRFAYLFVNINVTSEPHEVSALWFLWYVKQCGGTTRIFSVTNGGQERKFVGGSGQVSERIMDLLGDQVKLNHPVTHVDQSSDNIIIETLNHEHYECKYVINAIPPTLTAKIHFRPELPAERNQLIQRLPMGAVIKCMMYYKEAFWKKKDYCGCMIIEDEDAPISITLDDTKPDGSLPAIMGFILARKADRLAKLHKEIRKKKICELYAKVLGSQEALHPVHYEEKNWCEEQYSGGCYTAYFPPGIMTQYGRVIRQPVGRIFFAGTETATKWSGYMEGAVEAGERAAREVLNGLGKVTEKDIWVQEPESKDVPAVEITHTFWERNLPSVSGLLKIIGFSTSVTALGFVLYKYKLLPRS
The experiment in a line: Inhibition of recombinant human MAOA using p-tyramine as substrate after 15 mins by Amplex Red dye-based fluorometric method.

The species entered for series [2] is Homo sapiens. The experiment in a line: Selectivity index, ratio of Ki for recombinant human MAOA to Ki for recombinant human MAOB.
For series [3], the target named is T2, Amine oxidase [flavin-containing] B (Homo sapiens, UniProt P27338).
T2 sequence (P27338 whole entry): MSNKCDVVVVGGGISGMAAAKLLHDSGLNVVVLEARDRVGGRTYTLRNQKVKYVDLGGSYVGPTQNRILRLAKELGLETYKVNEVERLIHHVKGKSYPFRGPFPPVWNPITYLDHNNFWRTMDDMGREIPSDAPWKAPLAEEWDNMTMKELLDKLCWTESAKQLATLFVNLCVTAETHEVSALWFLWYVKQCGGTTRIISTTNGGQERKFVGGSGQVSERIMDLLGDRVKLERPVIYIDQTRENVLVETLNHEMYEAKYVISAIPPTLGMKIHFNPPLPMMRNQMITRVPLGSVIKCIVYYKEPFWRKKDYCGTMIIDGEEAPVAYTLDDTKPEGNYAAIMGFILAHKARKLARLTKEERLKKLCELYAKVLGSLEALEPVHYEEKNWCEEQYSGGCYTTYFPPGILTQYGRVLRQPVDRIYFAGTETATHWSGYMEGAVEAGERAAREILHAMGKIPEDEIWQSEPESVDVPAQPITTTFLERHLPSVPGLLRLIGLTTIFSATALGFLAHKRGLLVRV
In words: Inhibition of recombinant human MAOB using p-tyramine as substrate after 15 mins by Amplex Red dye-based fluorometric method.

Series [4] addresses T1, Amine oxidase [flavin-containing] A. In words: Inhibition of recombinant human MAOA using kynuramine as substrate after 30 mins by fluorescence assay.
Series [5] has as its target T2, Amine oxidase [flavin-containing] B. The experiment in a line: Inhibition of human MAOB.
In series [6] the target is T3, MAO-B (amine oxidase [flavin-containing] B) (Homo sapiens, UniProt P27338).
T3 sequence (P27338 whole entry): T2 sequence (P27338 whole entry)
In words: Inhibition of human MAOB at 1 uM relative to control.

Series [7] concerns the target T4, MAO-A (amine oxidase [flavin-containing] A) (Homo sapiens, UniProt P21397).
T4 sequence (P21397 whole entry): T1 sequence (P21397 whole entry)
The experiment in a line: Inhibition of human MAOA at 1 uM relative to control.

Series [8] deals with T1, Amine oxidase [flavin-containing] A. In words: Inhibition of human MAOA.
The species entered for series [9] is Homo sapiens. In words: Selectivity index, ratio of IC50 for human MAOA to IC50 for human MAOB.
The species named for series [10] is Homo sapiens. In words: Selectivity index, ratio of IC50 for inhibition of human MAOA to IC50 for IC50 for inhibition of human MAOB.

The Ki is a dissociation constant, usually derived from enzyme kinetics or from competition with a known ligand. Consider `CCc1ccc(/C=C/C(=O)c2ccc(Cl)s2)cc1`, for which the inhibitory constant (Ki) in [1] was found to be 5.22 µM. Further, the Ratio Ki in series [2] is 16.8. For the molecule `O=C(/C=C/c1ccc([N+](=O)[O-])cc1)c1ccc(Cl)s1`, the Ki in series [3] was found to be 2.55 µM; in series [1], 0.49 µM. For the same molecule, in [2], the Ratio Ki was determined as 0.19. By IC50 is commonly meant the concentration that gives 50% inhibition. `Cc1ncc(/C=C/c2ccc(CN3CCOCC3)c(O)c2)c(CO)c1O`: the half-maximal inhibitory concentration (IC50) in series [4] turned out to be 16 µM.

As usually defined, the inhibition is the change of the read-out against control, counted positive when it falls. A lower inhibition goes with a weak effect. `Cn1c(=O)c2[nH]c(-c3cccc(NC(=O)/C=C/c4cccc(F)c4)c3)nc2n(C)c1=O` gave an inhibitory constant (Ki) in series [5] of 3.42 µM. Also, the inhibition at 1 µM in series [6] amounted to 30.9%; in series [7], 0%. In series [5], `Cn1c(=O)c2c(nc(-c3cccc(Cl)c3)n2C)n(C)c1=O` displayed an inhibition constant Ki of 36 µM. Regarding `O=C(SCCc1ccco1)c1cc2ccccc2oc1=O`, the IC50 in series [5] was 0.2 µM; in [8] it was 39.7 µM. In addition, the Ratio IC50 in series [9] turned out to be 189.

The molecule `COc1cc(C2=NN(C(=O)Oc3ccccc3)C(c3ccc(O)c(OC)c3)C2)ccc1O` (configuration not stated) came in with a Ki in series [8] of 0.14 µM. Also, in series [10], the Ratio IC50 came out at 9e-07. Turning to `O=C1c2ccccc2C(=O)c2c(O)c(O)cc(O)c21` [PURPURIN], in series [5], the IC50 was > 40 µM. In [5], `CCn1c(=O)c2c(nc(/C=C/c3ccc(OC)c(OC)c3)n2C)n(CC)c1=O` [ISTRADEFYLLINE] registered a Ki of 0.027 µM.
